Measurements: the supplement of paper PMC10307832

Columns and labels:
Assay in all cases: relative viability (nuclei count vs DMSO), 5 days (fraction); higher = more cells survive
HCC-44 = system: HCC-44
Method in brief: (§1)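 Lung cancer cell lines in 1536-well plates were dosed by pin tool the day after seeding, either with one drug alone or with a fixed anchor-drug dose plus five library-drug doses (not always all listed) in √10 steps. After 5 days, cells were fixed and their nuclei stained in one step (final 0.05% Triton X-100, 1% formaldehyde, 1 ug/ml Hoechst), then counted on 4× images. Relative viability is the nuclei count in treated wells divided by that in vehicle wells. Values are medians of duplicate plates.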

NCI-H460 = system: NCI-H460
Method in brief: as §1

NCI-H1651 = system: NCI-H1651
Method in brief: as §1

CAL-12T = system: CAL-12T
Method in brief: as §1

NCI-H2085 = system: NCI-H2085
Method in brief: as §1

NCI-H358 = system: NCI-H358
Method in brief: as §1

NCI-H1975 = system: NCI-H1975
Method in brief: as §1

BEN = system: BEN
Method in brief: as §1

NCI-H838 = system: NCI-H838
Method in brief: as §1

NCI-H1355 = system: NCI-H1355
Method in brief: as §1

NCI-H1755 = system: NCI-H1755
Method in brief: as §1

EKVX = system: EKVX
Method in brief: as §1

HCC-15 = system: HCC-15
Method in brief: as §1

HCC-366 = system: HCC-366
Method in brief: as §1

LOU-NH91 = system: LOU-NH91
Method in brief: as §1

NCI-H1395 = system: NCI-H1395
Method in brief: as §1

NCI-H1437 = system: NCI-H1437
Method in brief: as §1

NCI-H2023 = system: NCI-H2023
Method in brief: as §1

NCI-H1734 = system: NCI-H1734
Method in brief: as §1

NCI-H1563 = system: NCI-H1563
Method in brief: as §1

NCI-H1650 = system: NCI-H1650
Method in brief: as §1

## COc1cc(N2CCC(C(N)=O)CC2)ccc1Nc1nc(N)c(Cl)c(Nc2ccccc2S(=O)(=O)C(C)C)n1 [HG-5-88-01] + CS(=O)(=O)CCNCc1ccc(-c2ccc3ncnc(Nc4ccc(OCc5cccc(F)c5)c(Cl)c4)c3c2)o1 [Lapatinib] (partner 2 µM)
HCC-44; first compound 0.04 µM
  relative viability: 0.978
HCC-44; first compound 0.1265 µM
  relative viability: 0.987
HCC-44; first compound 0.4 µM
  relative viability: 0.845
HCC-44; first compound 1.265 µM
  relative viability: 1.04
HCC-44; first compound 4 µM
  relative viability: 0.669
NCI-H460; first compound 0.04 µM
  relative viability: 0.963
NCI-H460; first compound 0.1265 µM
  relative viability: 0.981
NCI-H460; first compound 0.4 µM
  relative viability: 0.871
NCI-H460; first compound 1.265 µM
  relative viability: 0.996
NCI-H460; first compound 4 µM
  relative viability: 0.302
NCI-H1651; first compound 0.04 µM
  relative viability: 0.955
NCI-H1651; first compound 0.1265 µM
  relative viability: 1
NCI-H1651; first compound 0.4 µM
  relative viability: 0.796
NCI-H1651; first compound 1.265 µM
  relative viability: 0.863
NCI-H1651; first compound 4 µM
  relative viability: 0.882
CAL-12T; first compound 0.04 µM
  relative viability: 0.618
CAL-12T; first compound 0.1265 µM
  relative viability: 0.698
CAL-12T; first compound 0.4 µM
  relative viability: 0.641
CAL-12T; first compound 1.265 µM
  relative viability: 0.32
CAL-12T; first compound 4 µM
  relative viability: 0.359
NCI-H2085; first compound 0.04 µM
  relative viability: 0.718
NCI-H2085; first compound 0.1265 µM
  relative viability: 0.86
NCI-H2085; first compound 0.4 µM
  relative viability: 0.761
NCI-H2085; first compound 1.265 µM
  relative viability: 0.65
NCI-H2085; first compound 4 µM
  relative viability: 0.557
NCI-H358; first compound 0.04 µM
  relative viability: 0.451
NCI-H358; first compound 0.1265 µM
  relative viability: 0.378
NCI-H358; first compound 0.4 µM
  relative viability: 0.307
NCI-H358; first compound 1.265 µM
  relative viability: 0.256
NCI-H358; first compound 4 µM
  relative viability: 0.304
NCI-H1975; first compound 0.04 µM
  relative viability: 0.896
NCI-H1975; first compound 0.1265 µM
  relative viability: 0.907
NCI-H1975; first compound 0.4 µM
  relative viability: 0.723
NCI-H1975; first compound 1.265 µM
  relative viability: 0.736
NCI-H1975; first compound 4 µM
  relative viability: 0.447
BEN; first compound 0.04 µM
  relative viability: 0.817
BEN; first compound 0.1265 µM
  relative viability: 0.743
BEN; first compound 0.4 µM
  relative viability: 0.66
BEN; first compound 1.265 µM
  relative viability: 0.586
BEN; first compound 4 µM
  relative viability: 0.545
NCI-H838; first compound 0.04 µM
  relative viability: 0.906
NCI-H838; first compound 0.1265 µM
  relative viability: 0.952
NCI-H838; first compound 0.4 µM
  relative viability: 0.797
NCI-H838; first compound 1.265 µM
  relative viability: 0.708
NCI-H838; first compound 4 µM
  relative viability: 0.498
NCI-H1355; first compound 0.04 µM
  relative viability: 1.08
NCI-H1355; first compound 0.1265 µM
  relative viability: 1.04
NCI-H1355; first compound 0.4 µM
  relative viability: 0.832
NCI-H1355; first compound 1.265 µM
  relative viability: 0.917
NCI-H1355; first compound 4 µM
  relative viability: 0.623
NCI-H1755; first compound 0.1265 µM
  relative viability: 1.04
NCI-H1755; first compound 0.4 µM
  relative viability: 0.986
NCI-H1755; first compound 1.265 µM
  relative viability: 1.02
NCI-H1755; first compound 4 µM
  relative viability: 1.15
EKVX; first compound 0.04 µM
  relative viability: 0.212
EKVX; first compound 0.1265 µM
  relative viability: 0.215
EKVX; first compound 0.4 µM
  relative viability: 0.184
EKVX; first compound 4 µM
  relative viability: 0.15
HCC-15; first compound 0.04 µM
  relative viability: 0.878
HCC-15; first compound 0.1265 µM
  relative viability: 0.83
HCC-15; first compound 0.4 µM
  relative viability: 0.792
HCC-15; first compound 1.265 µM
  relative viability: 0.894
HCC-15; first compound 4 µM
  relative viability: 0.449
HCC-366; first compound 0.04 µM
  relative viability: 1.04
HCC-366; first compound 0.1265 µM
  relative viability: 1.04
HCC-366; first compound 0.4 µM
  relative viability: 0.863
HCC-366; first compound 1.265 µM
  relative viability: 1.08
HCC-366; first compound 4 µM
  relative viability: 1.29
LOU-NH91; first compound 0.04 µM
  relative viability: 0.743
LOU-NH91; first compound 0.1265 µM
  relative viability: 0.673
LOU-NH91; first compound 0.4 µM
  relative viability: 0.594
LOU-NH91; first compound 1.265 µM
  relative viability: 0.592
LOU-NH91; first compound 4 µM
  relative viability: 0.608
NCI-H1395; first compound 0.04 µM
  relative viability: 0.933
NCI-H1395; first compound 0.1265 µM
  relative viability: 1
NCI-H1395; first compound 0.4 µM
  relative viability: 1.12
NCI-H1395; first compound 1.265 µM
  relative viability: 1.05
NCI-H1395; first compound 4 µM
  relative viability: 0.83
NCI-H1437; first compound 0.04 µM
  relative viability: 0.8
NCI-H1437; first compound 0.1265 µM
  relative viability: 0.945
NCI-H1437; first compound 0.4 µM
  relative viability: 0.756
NCI-H1437; first compound 1.265 µM
  relative viability: 0.761
NCI-H1437; first compound 4 µM
  relative viability: 0.454
NCI-H2023; first compound 0.04 µM
  relative viability: 0.926
NCI-H2023; first compound 0.1265 µM
  relative viability: 1.32
NCI-H2023; first compound 0.4 µM
  relative viability: 0.573
NCI-H2023; first compound 1.265 µM
  relative viability: 0.708
NCI-H2023; first compound 4 µM
  relative viability: 0.335
NCI-H1734; first compound 0.04 µM
  relative viability: 1
NCI-H1734; first compound 0.1265 µM
  relative viability: 1.08
NCI-H1734; first compound 0.4 µM
  relative viability: 1.02
NCI-H1734; first compound 1.265 µM
  relative viability: 0.982
NCI-H1734; first compound 4 µM
  relative viability: 0.969
NCI-H1563; first compound 0.04 µM
  relative viability: 0.872
NCI-H1563; first compound 0.1265 µM
  relative viability: 0.941
NCI-H1563; first compound 0.4 µM
  relative viability: 1.03
NCI-H1563; first compound 1.265 µM
  relative viability: 0.882
NCI-H1563; first compound 4 µM
  relative viability: 1.24
NCI-H1650; first compound 0.04 µM
  relative viability: 0.785
NCI-H1650; first compound 0.1265 µM
  relative viability: 0.869
NCI-H1650; first compound 0.4 µM
  relative viability: 0.928
NCI-H1650; first compound 1.265 µM
  relative viability: 0.799
NCI-H1650; first compound 4 µM
  relative viability: 0.29
